Values after ≈ are worked out from the molar mass of the structure shown. Like-named read-outs stand apart in the source and are kept apart here. Where a SMILES comes first, the peptide text is derived from it. The star is where a group is joined. Cbz = O=C(OCc1ccccc1)*
What was measured:
Rev-RRE IIB interaction [1] = target: T1, Rev-RRE IIB interaction (Human immunodeficiency virus type 1 group M subtype B, UniProt P04608+P04618); type: cell-based, HIV
T1 construct: with a fusion to HIV Rev (residues 3-70) was generated; expressed in transfected cells
Method: A library of approximately 4500 carboxamide-containing compounds was assembled and tested in the reporter cell line at 30 μM. Reporter cells were plated in a white 96-well plate and compounds were added to the cells using a Biomek FX robotic liquid handler (Beckman Coulter). The cells were incubated with the compound for 48 hours then assayed for luciferase activity (Promega Bright Glo). The cytotoxicity of each compound was determined in parallel via MTT-based cell viability assays.
(§1) Cells were counted and plated into white 384-well or 96-well cell-culture treated assay plates and compounds were added. After 48 hours, the cells were prepared for luminescence assays that were performed on a plate reader (Tecan Evolution or MD Analyst). The cytotoxicity of each compound was determined in parallel via MTT-based cell viability assays.
as §1, with “Tat hybrid reporter assay. […] Previously characterized thienopyridines and diaminoacridine were used as controls. Cells” for “Cells”, “384-well” for “384-well or 96-well”, “lumincescence” for “luminescence”
The RRE IIB-Rev screening cell line was plated in 384-well assay plates and compounds were added to the cells to a final concentration of 30 μM. Cells were prepared and assayed for luciferase activity. […] In parallel, MTT cell viability assays were performed to assess the toxicity of compounds and minimize the level of false positives.

Rev-RRE IIB interaction [2] = conditions: in vitro
Text: To further validate the hits, we used an electrophoretic mobility shift assay (EMSA) to evaluate which of the three hit scaffolds were capable of disrupting the Rev-RRE IIB interaction in vitro.

[3] = tested on: Vpu-dependent degradation of Rev; test: Vpu-dependent degradation of Rev, western blot in transfected 293T cells; type: cell-based, HIV; conditions: co-transfection with 100 ng Vpu expression plasmid
Method: Vpu is a regulator of Rev. In this experiment, Rev was expressed in the presence or absence of Vpu and levels of both proteins were measured by western blot. Flag tagged Rev and either Flag tagged Vpu or Flag tagged GFP were transfected to 293T cells.
Next we tested the Vpu-dependent degradation of Rev with the proteasome inhibitor MG132.

PBMC = test: MTT toxicity in the PBMC replication assay; type: cell-based, Human; conditions: PBMC experiment; read-out: TC50 by MTT assay
Text: Results of this experiment are shown in FIG. 9 where the replication and toxicity curves for isolate 93BR021 (CCR5-tropic, group M, subtype B) are shown.

[4] = tested on: HIV RRE (Rev-dependent) reporter; test: Rev reporter assay in 293T cells, p24 ELISA; type: cell-based; conditions: Human immunodeficiency virus 1, HEK-293T, Table 2
Method: Rev reporter assay. In the Rev reporter assay, 293T cells were transfected with an HIV RRE (Rev-dependent) reporter plus a pSV2 Rev expression plasmid (Hope, T. J., et al. (1990) Proc. Natl. Acad. Sci. USA 87, 7787-7791). Compounds were incubated with the cells for 48 hours and reporter activity was assessed by p24 ELISA. Leptomycin B, an inhibitor of the Crm1 pathway that inhibits Rev-dependent export, was included as a control. The cytotoxicity of each compound was determined in parallel via MTT-based cell viability assays.

[5] = Aqueous solubility pH 7.4; type: physicochemical; conditions: aqueous solution, pH 7.4, pH 7.4, aqueous buffer
Text: (§2) We next evaluated analogs 2b, 2f, 4a, and 4e in a panel of standard in vitro ADME assays to assess drug-like properties and the potential for efficacy in animals.

[6] = target: T2, HIV RRE IIB Luciferase reporter with HIV Tat (1-48)-Rev 3-70 (Human immunodeficiency virus type 1 group M subtype B, UniProt P04608+P04618); test: Tat-hybrid transient reporter assay in 293T cells, RRE IIB reporter; type: cell-based; conditions: 100 nM compound; 293T transient transfection
T2 construct: HIV Tat (1-48)-Rev 3-70 expression construct; expressed in transfected cells; host or cells: 293T, transient transfection
Method: (§3) Testing the specificity of the thienopyridine compounds using the Tat-hybrid reporter system.
(§4) A 96 well plate was seeded with 10,000 293T cells. We transfected each well with 10 ng of the HIV TAR Luciferase reporter and 5 ng of the HIV Tat 1-72 expression construct or 10 ng of the HIV RRE IIB Luciferase reporter and 5 ng of the HIV Tat (1-48)-Rev 3-70 expression construct, and with 2 ng of a CMV Renilla luciferase control. Compound 4a was added to a final concentration of 3.16, 10, 31.6, and 100 nM. Each condition was performed in quadruplet. Note, it was necessary to use transient transfection assays rather than stable cell lines in order to compare the two reporter systems, although the level of inhibition conferred by the compounds in the transient assays was lower than in the cell lines. The cells were incubated for 48 hours and dual luciferase assays were performed according to the manufacturers protocol (Promega). Reporter activity was normalized against the Renilla control.

[7] = target: T3, HIV TAR Luciferase reporter with HIV Tat 1-72 (Human immunodeficiency virus type 1 group M subtype B, UniProt P04608); test: Tat-hybrid transient reporter assay in 293T cells, TAR reporter; type: cell-based; conditions: 100 nM compound; 293T transient transfection
T3 construct: 5 ng of the HIV Tat 1-72 expression construct; expressed in transfected cells; host or cells: 293T, transient transfection
Method: as §3, §4

[8] = tested on: HIV-1 provirus in U1 cells; test: U1 activation (latency) assay, p24 ELISA; type: cell-based
Method: (§5) U1 activation assay. U1 cells obtained from the AIDS Research and Reference Reagent Program were maintained under standard culture conditions in RPMI 1640 supplemented with 10% fetal bovine serum (heat inactivated), 2 mM L-glutamine, 100U/mL penicillin and 100 μg/mL streptomycin. U1 cells contain an integrated copy of a phorbol ester inducible HIV-1 provirus and addition of phytohemagglutinin (PHA) to the cell culture was used to induce virus production. On the day of the assay, the U1 cells were activated with PHA and 250,000 cells were plated in 96-well plates. Test compounds were diluted in media and applied to the cells at final concentrations from 1 to 10,000 nM. Cultures were incubated for 3 days and supernatants harvested. Cell-free virus production was measured by p24 ELISA on culture supernatant. Compound toxicity was determined by MTT cell-viability assay in parallel assays.

[9] = Human liver microsome stability; type: in vitro ADME; conditions: human liver microsomes; read-out: HLM T1/2
Text: The more lipophilic analogs 4a and 4e also appear more prone to oxidative metabolism in the presence of human liver microsomes. This is perhaps unsurprising given the presence of methoxyphenyl (4a) and benzylic methylene (4e) functions, both potential sites of oxidative metabolism.

HIV-1 isolate NL4-3 = test: Virus spreading / replication assay in Jurkat cells, p24 ELISA; type: cell-based; conditions: Human immunodeficiency virus 1, NL43, Jurkat; Table 2; NL4-3; read-out: Jurkat HIV-1 replication assay
Method: Virus spreading assay. Jurkat (E6-1) cells (NIH AIDS Reagent Program) were cultured in RPMI media supplemented with 25 mM HEPES pH 7.4, 10% heat-inactivated fetal calf serum (Hyclone, Waltham Mass.), and 1% penicillin/streptomycin. 2.5×10^5 Jurkat cells were inoculated with 250 pg p24 in 250 μl media in a 96-well flat bottom polystyrene cell culture microplate. Input virus was removed after 18 hours via washing cells phosphate-buffered saline (PBS). Cells were resuspended in 250 μl of media containing compounds at the described concentrations. Cells were incubated at 37° C., 5% CO2 and supernatant samples were removed every 48 hours and replaced with fresh media containing the compounds. Viral replication was quantified using ELISA to quantify p24 viral capsid protein in the culture supernatant. Mouse monoclonal and rabbit polyclonal α-p24 antibodies used in the ELISA were obtained from the NIH AIDS Reagent Program. Toxicity was monitored using the MTT cell viability assay (Mosmann, T. (1983). J Immunol Methods 65, 55-63).

Caco-2 permeability = type: in vitro ADME; conditions: human
Text: as §2

[10] = tested on: Tat-hybrid reporter cell lines (HeLa); test: MTT cell viability run in parallel with the Tat-hybrid assay; type: cell-based; conditions: Table 6; at 50,000 nM
In short: (§6)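 HeLa reporter lines (Tat-hybrid) treated with compound for 48 hours, then luciferase luminescence measured. Cytotoxicity assessed in parallel by MTT viability; thienopyridines and diaminoacridine served as controls.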

[11] = as above; type: cell-based; conditions: human, Tat-hybrid reporter cell lines (HeLa); Table 6; second 'EC50' entry of the cell, values D/E
In short: as §6

U1 cells = test: MTT cell viability in parallel with the U1 assay; type: cell-based; conditions: Table 6; read-out: U1 TC50
Method: as §5

T1 sequence (P04608 whole entry, looked up, the tested form may be a part): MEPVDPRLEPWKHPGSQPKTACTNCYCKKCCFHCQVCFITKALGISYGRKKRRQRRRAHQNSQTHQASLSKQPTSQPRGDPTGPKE
T1 sequence (P04618 whole entry, looked up, the tested form may be a part): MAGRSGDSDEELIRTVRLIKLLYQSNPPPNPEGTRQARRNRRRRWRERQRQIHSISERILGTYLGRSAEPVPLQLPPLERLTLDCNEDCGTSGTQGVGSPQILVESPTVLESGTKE
T3 sequence (P04608 1-72): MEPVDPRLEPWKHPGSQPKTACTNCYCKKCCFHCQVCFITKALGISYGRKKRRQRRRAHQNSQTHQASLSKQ
T2 sequence (P04608 whole entry, looked up): as the sequence (P04608 whole entry, looked up, the tested form may be a part) above
T2 sequence (P04618 whole entry, looked up): as the sequence (P04618 whole entry, looked up, the tested form may be a part) above

Nc1ccc2cc3ccc(N)cc3nc2c1 [3,6 diaminoacridine, reference compound]
activity in the Tat-hybrid reporter assay (Rev-RRE IIB interaction [1]): inhibits expression of the reporter
inhibition of the Rev-RRE interaction by EMSA (Rev-RRE IIB interaction [2]): inhibition of Rev-RRE formation is observed

CC(C)C[C@@H](C=O)NC(=O)[C@H](CC(C)C)NC(=O)[C@H](CC(C)C)NC(=O)OCc1ccccc1 [MG132] (Cbz-Leu-Leu-Leu-aldehyde)
effect on Vpu-dependent degradation of Rev [3]: blocks Vpu-dependent degradation of Rev

Cc1cn([C@H]2C[C@H](N=[N+]=[N-])[C@@H](CO)O2)c(=O)[nH]c1=O [AZT]
CC50 (PBMC): < 40 µM

COc1ccc(-c2cncc3sc(C(N)=O)cc23)cc1 [Compound 4a, 4-(4-methoxyphenyl)thieno[2,3-c]pyridine-2-carboxamide]
EC50 [4]: 100 to 500 nM
activity in the Tat-hybrid reporter assay (Rev-RRE IIB interaction [1]): low-nM potency
solubility [5]: 0.44 µM (≈ 0.125 µg/mL)
expression of the HIV RRE IIb reporter [6]: significantly inhibited
expression of the HIV TAR reporter [7]: not similarly inhibited
potency in the U1 assay [8]: low-nM potency
IC50 ([8]; Human immunodeficiency virus 1, Table 2, read-out: U1 cell IC50): < 100 nM
half-life [9]: 8 min
IC50 (HIV-1 isolate NL4-3): < 100 nM
Papp (Caco-2 permeability): 59.4 ×10⁻⁶ cm/s

CN(C)c1ccnc2sc(C(N)=O)c(N)c12 [drawing 241]
Tat hybrid cell viability at 50,000 nM [10]: Y (Y = 30-60%)
EC50 at 48 h [11]: > 40 µM
IC50 ([8]; Table 6, read-out: U1 IC50): > 500 nM
CC50 (U1 cells): > 40 µM
